Consider one molecule from US20050026836A1, “Composition for the treatment of damaged tissue” (priority 1999, published 2005).

Structures are written as SMILES.

What all share (format): biochemical
Assay [1] addresses T1, catalytic domain human MMP-1 (Homo sapiens, UniProt P03956).
T1 construct: made in house
T1 sequence (P03956 100-269 limits assumed): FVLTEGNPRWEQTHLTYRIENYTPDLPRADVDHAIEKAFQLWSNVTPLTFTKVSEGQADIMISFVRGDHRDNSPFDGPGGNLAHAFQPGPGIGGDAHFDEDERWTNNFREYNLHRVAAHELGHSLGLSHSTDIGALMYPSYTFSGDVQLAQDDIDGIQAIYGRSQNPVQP
In words: MMP-1 fluorogenic inhibition assay. To be noted: * limited by compound solubility; read-out: Calculated Ki(nM) MMP-1. How it is done: (§1) All enzymes were pre-activated at 37° C. with aminophenylmercuric acetate (APMA) or trypsin before being made up to the final concentrations used in the assay.
(§2) For MMP-1, the assay buffer used was 50 mM Tris, 200 mM NaCl, 5 mM CaCl2, 20 μM ZnCl2, 0.05% (w/v) Brij 35, pH 7.5. […] For MMP-13, the assay buffer used was 50 mM Tris, pH 7.5, 200 mM NaCl, 5 mM CaCl2, […] and 0.02% (w/v) Brij 35.
The incubation was performed at 37° C. for 60 minutes.
(§3) For MMP-2, the final assay concentrations of inhibitors used were 1000, 800, 600, 400, 200 and 100 nM. For MMP-3, the final assay concentrations of inhibitors used were 5, 4, 3, 2, 1 and 0.5 nM. For MMP-9 and MMP-14, the final assay concentrations of inhibitors used were 5, 4, 3, 2, 1 and 0.5 μM.
(§4) All assays were carried out in a black 96-well plate with a final volume of 100 μl in each well. Inhibitors were dissolved in dimethylsulphoxide (DMSO) to 1 mM. Solutions were then serially diluted in buffer to give the final concentrations shown.
(§5) These were estimated using the following equation: IC50=(Ki*[…], where S is the substrate concentration and Km the Michaelis-Menton coefficient. Serine Protease Assays

The target of assay [2] is T2, catalytic domain of human MMP-9 (Homo sapiens, UniProt P14780).
T2 sequence (P14780 with tags, fused parts or gaps DEL216-390 limits assumed): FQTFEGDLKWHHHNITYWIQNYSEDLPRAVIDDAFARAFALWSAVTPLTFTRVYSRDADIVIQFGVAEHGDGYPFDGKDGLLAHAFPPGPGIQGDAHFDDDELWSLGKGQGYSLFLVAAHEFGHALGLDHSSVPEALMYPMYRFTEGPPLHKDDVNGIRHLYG
In words: MMP-9 fluorogenic inhibition assay. To be noted: read-out: Calculated Ki(nM) MMP-9. How it is done:
All enzymes were pre-activated at 37° C. with aminophenylmercuric acetate (APMA) or trypsin before being made up to the final concentrations used in the assay. MMP-1 (30 nM) was activated with 0.93 mM APMA for 20 minutes, MMP-2 (30 nM) was activated with 1.32 mM APMA for 1 hour, MMP-3 (1010 nM) was activated with 1.81 mM APMA for 3 hours or heat activated at 55° C. for three hours, MMP-9 (100 nM) was activated with 2 mM APMA for 2 hours, human MMP-13 (100 nM) was activated with 2 mM APMA for 2 hours, and MMP-14 (900 nM) was activated with 0.9 ng/ml trypsin for 25 minutes, followed by the addition of 4.5 ng/ml trypsin inhibitor.
For MMP-1, the assay buffer used was 50 mM Tris, 200 mM NaCl, 5 mM CaCl2, 20 μM ZnCl2, 0.05% (w/v) Brij 35, pH 7.5. […] For MMP-13, the assay buffer used was 50 mM Tris, pH 7.5, 200 mM NaCl, 5 mM CaCl2, […] and 0.02% (w/v) Brij 35. For MMP-14, the assay buffer used was 50 mM Tris, 100 mM NaCl, 10 mM CaCl2, 0.25% (w/v) Brij 35, pH 7.5.
(§6) MMP-2, MMP-3 and MMP-9 inhibition was assayed by incubating activated catalytic domain of human MMP-2, MMP-3 and MMP-9 at 1 nM in assay buffer with 5 μM substrate Mca-Arg-Pro-Lys-Pro-Tyr-Ala-Nva-Trp-Met-Lys(Dnp)-NH2, and six different concentrations of inhibitor. The incubation was performed at 37° C. for 60 minutes.
The final assay concentrations of inhibitors used in the MMP-1 assays to determine Ki were 50, 40, 30, 20, 10 and 5 μM. For MMP-2, the final assay concentrations of inhibitors used were 1000, 800, 600, 400, 200 and 100 nM. For MMP-3, the final assay concentrations of inhibitors used were 5, 4, 3, 2, 1 and 0.5 nM. For MMP-9 and MMP-14, the final assay concentrations of inhibitors used were 5, 4, 3, 2, 1 and 0.5 μM.
All assays were carried out in a black 96-well plate with a final volume of 100 μl in each well. […] For MMP-2, MMP-3, MMP-9 and MMP-14, fluorescence was read every 2 minutes at […] and 393 nm γem for 1 hour using a Fluorostar fluorimeter (BMG) with BIOLISE software. For MMP-1 assays, the filters used were 355 nm γex and 440 nm γem; fluorescence was read every 2 minutes for 1 hour. […]

The target in assay [3] is T3, catalytic domain of human MMP-3 (Homo sapiens, UniProt P08254).
T3 construct: made in house
T3 sequence (P08254 100-272 limits assumed): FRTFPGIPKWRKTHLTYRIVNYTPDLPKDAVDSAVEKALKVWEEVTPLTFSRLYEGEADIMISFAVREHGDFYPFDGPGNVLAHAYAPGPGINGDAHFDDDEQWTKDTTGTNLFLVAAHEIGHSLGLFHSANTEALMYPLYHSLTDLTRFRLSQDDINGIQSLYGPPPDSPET
Briefly: MMP-3 fluorogenic inhibition assay. How it is done: as §1, §2, §6, §3, §4, §5

Usually Ki stands for a measure of affinity in units of concentration, obtained from inhibition or displacement. As for `COC[C@@H](NC(=O)[C@@H](NC(=O)[C@H](CCCc1ccc(-c2cccc(OC)c2)c(C)c1)CC(=O)O)C(C)(C)C)c1ccccc1` [compound 9454, (3R)-3-({[(1S)-2,2-Dimethyl-1-({[(1S)-2-methoxy-1-phenylethyl]amino}carbonyl)propyl]amino}carbonyl)-6-(3′-methoxy-2-methylbiphen-4-yl)hexanoic acid], the figures for the Ki in assay [1], in assay [2] and in assay [3] (read-out: Calculated Ki(nM) MMP-3) were over 19400 nM, 52400 nM and 44 nM, respectively. In assay [3] (from Ki values of Table 3 (MMP-1, -2, -3, -9, -13, -14)), the “Selectivity among MMPs (in words)” value is “selective MMP-3 inhibitor”.
